Laboratory results published in ChEMBL document CHEMBL2016556, “Discovery of novel P3-oxo inhibitor of hepatitis C virus NS3/4A serine protease” (Bioorg Med Chem Lett, 2012).

Assays:
Hepatitis C virus [1] = assay: Antiviral activity against Hepatitis C virus genotype 1b expressing NS3/4A protease A156V mutant infected in HuH7 cells; assay type: functional, organism-based, Hepacivirus hominis; conditions: Huh-7
Hepatitis C virus [2] = assay: Antiviral activity against Hepatitis C virus genotype 1b expressing NS3/4A protease […] mutant infected in HuH7 cells; assay type: functional, organism-based, Hepacivirus hominis; conditions: Huh-7
Hepatitis C virus [3] = assay: Antiviral activity against Hepatitis C virus genotype 1b expressing wild type NS3/4A protease infected in HuH7 cells; assay type: functional, organism-based, Hepacivirus hominis; conditions: Huh-7
Hepatitis C virus [4] = assay: Antiviral activity against Hepatitis C virus genotype 1b expressing NS3/4A protease R155K mutant infected in HuH7 cells; assay type: functional, organism-based, Hepacivirus hominis; conditions: Huh-7
Hepatitis C virus [5] = assay: Antiviral activity against Hepatitis C virus genotype 1b expressing NS3/4A protease D168A mutant infected in HuH7 cells; conditions: Hepacivirus hominis, Huh-7
Hepatitis C virus [6] = assay: Antiviral activity against Hepatitis C virus genotype 1b expressing NS3/4A protease A156S mutant infected in HuH7 cells; assay type: functional, organism-based, Hepacivirus hominis; conditions: Huh-7
Hepatitis C virus [7] = assay: Antiviral activity against Hepatitis C virus genotype 1b infected in HuH7 cells; assay type: functional, organism-based, Hepacivirus hominis; conditions: Huh-7
Hepatitis C virus [8] = assay: Antiviral activity against Hepatitis C virus genotype 1b expressing NS3/4A protease A156T mutant infected in HuH7 cells; assay type: functional, organism-based, Hepacivirus hominis; conditions: Huh-7
Hepatitis C virus [9] = assay: Antiviral activity against Hepatitis C virus genotype 1a infected in HuH7 cells; assay type: functional, organism-based, Hepacivirus hominis; conditions: subtype 1a, Huh-7
[10] = Inhibition of Hepatitis C virus genotype 1a NS3/4A protease using Ac-DE-Dap(QXL520)-EE-Abu-psi-COO]-AS-C(5-FAMsp)-NH2 as substrate by FRET analysis; set-up: species or system Hepatitis C virus subtype 1a
[11] = Apparent permeability of the compound at pH 7.05 by PAMPA assay; assay type: ADME
[12] = Oral bioavailability in rat; assay type: ADME, organism-based; conditions: in vivo
[13] = Clearance in rat; assay type: ADME, organism-based; conditions: in vivo

| Compound | EC50 (Hepatitis C virus [1]) [µM] | EC50 (Hepatitis C virus [2]) [µM] | EC50 (Hepatitis C virus [3]) [µM] | EC50 (Hepatitis C virus [4]) [µM] | EC50 (Hepatitis C virus [5]) [µM] | EC50 (Hepatitis C virus [6]) [µM] | EC50 (Hepatitis C virus [7]) [µM] | EC50 (Hepatitis C virus [8]) [µM] | EC50 (Hepatitis C virus [9]) [µM] | IC50 [10] [µM] | Papp [11] [nm/s] | bioavailability [12] [%] | clearance [13] [L/h/kg] |
| --- | --- | --- | --- | --- | --- | --- | --- | --- | --- | --- | --- | --- | --- |
| COc1ccc2c(O[C@@H]3C[C@H]4C(=O)N[C@]5(C(=O)NS(=O)(=O)C6CC6)C[C@H]5/C=C\CCCCCC(OC(=O)NC(C)(C)C)C(=O)N4C3)cc(-c3nc(C(C)C)cs3)nc2c1C (stereo not given in full) | 0.323 | 1.07 | 0.0012 | 0.324 | 0.462 | 0.0025 | 0.0008 | 0.0846 | 0.005 | 0.031 |  |  |  |
| CCOC1CCCCC/C=C\[C@@H]2C[C@@]2(C(=O)NS(=O)(=O)C2CC2)NC(=O)[C@@H]2C[C@@H](Oc3cc(-c4nc(C(C)C)cs4)nc4c(C)c(OC)ccc34)CN2C1=O (stereo not given in full) | 0.434 | 0.694 | 0.0631 | 3.98 | 0.514 | 0.0294 | 0.0794 | 0.397 | 0.251 | 0.107 |  |  |  |
| COc1ccc2c(O[C@@H]3C[C@H]4C(=O)N[C@]5(C(=O)NS(=O)(=O)C6CC6)C[C@H]5/C=C\CCCCCC(OC(=O)OC(C)(C)C)C(=O)N4C3)cc(-c3nc(C(C)C)cs3)nc2c1C (stereo not given in full) |  |  | 0.0631 |  |  |  | 0.0398 |  | 0.0501 | 0.195 |  |  |  |
| COc1ccc2c(O[C@@H]3C[C@H]4C(=O)N[C@]5(C(=O)NS(=O)(=O)C6CC6)C[C@H]5/C=C\CCCCCC(OC(=O)N5CCCCC5)C(=O)N4C3)cc(-c3nc(C(C)C)cs3)nc2c1C (stereo not given in full) | 0.658 | 3.98 | 0.0071 | 1.48 | 2.15 | 0.0097 | 0.0032 | 0.0902 | 0.01 | 0.0562 |  |  |  |
| COc1ccc2c(O[C@@H]3C[C@H]4C(=O)N[C@]5(C(=O)NS(=O)(=O)C6CC6)C[C@H]5/C=C\CCCCCC(O)C(=O)N4C3)cc(-c3nc(C(C)C)cs3)nc2c1C (stereo not given in full) | 0.0032 | 0.0457 | 0.0013 | 0.0603 | 0.0628 | 0.0001 | 0.0008 | 0.0026 | 0.001 | 0.0068 |  |  |  |
| COc1ccc2c(O[C@@H]3C[C@H]4C(=O)N[C@]5(C(=O)NS(=O)(=O)C6CC6)C[C@H]5/C=C\CCCCCC(OC(=O)n5ccnc5)C(=O)N4C3)cc(-c3nc(C(C)C)cs3)nc2c1C (stereo not given in full) | 0.0039 | 0.151 | 0.0005 | 0.0479 | 0.07 | 0.0001 | 0.0005 | 0.0028 | 0.0008 | 0.0032 | 12 | 12 | 3.22 |
| CC(C)(C)OC(=O)N[C@H]1CCCCC/C=C\[C@@H]2C[C@@]2(C(=O)NS(=O)(=O)C2CC2)NC(=O)[C@@H]2C[C@@H](OC(=O)N3Cc4cccc(F)c4C3)CN2C1=O [DANOPREVIR] | 0.0083 | 0.0245 | 0.0001 | 0.0808 | 0.0485 | 0.0016 |  | 0.0068 |  | 0.0004 |  |  |  |
